# Patent US20020182736A1, “Methods to measure lipid antioxidant activity” (TRUSTEES OF TUFTS COLLEGE, priority 2001, published 2002)
# Several values for one entry are separate records, joined by “and”; a condition that tells them apart may be missing. Equal values may be shown once. Entries after “also recorded” stand apart in the source; their conditions may differ.
# Columns and labels:
# [1] = tested on: lipid plasma compartment oxidation; assay: Lipid plasma compartment oxidation, BODIPY 581/591 green fluorescence
# Method: Plasma oxidation was measured fluorometrically using two different fluorescent probes: DCFH and BODIPY. DCFH-DA and BODIPY stock solutions were prepared in EtOH and dimethylsulfoxide, respectively, stored under nitrogen at −20° C. and used within two months. The final plasma dilution was 1:5 (v/v).
# In the experiments using β-carotene, to avoid the filtering effect due to the carotenoid, the oxidation product of BODIPY was also detected at λex=520 and at λem-540 nm. The fluorescence measurements were carried out using a Perkin Elmer spectrofluorometer (model 650-10s) with 1 cm path length fluorescence cuvettes.
# Briefly, β-carotene (dissolved in stabilized THF, 10 mg/ml) or α-tocopherol (4.3 mg/ml in EtOH) were added to plasma to reach a final concentration of 50 μM; the samples were then vortexed for 30 sec and incubated at 37±1° C. for 1 to 6 hr under nitrogen. […] Controls were prepared in the same way using solvent only.
# The effect of adding the membrane soluble antioxidants, α-tocopherol (in EtOH) and β-carotene (in THF), pre-incubated with plasma, was studied. […] Values are mean±SD of five independent experiments. Statistical analysis: one-way ANOVA with Tukey's post test; *p<0.05, **p<0.01.
# To monitor the aqueous phase oxidizability, AAPH was used as a hydrophilic radical generator and coupled to DCFH was used as the indicator.
# [2] = tested on: oxidation of lipid compartment of plasma; assay: Lipid compartment oxidizability of plasma with BHT standard (MeO-AMVN, BODIPY 581/591); conditions: for Green Fluorescence, 25 μM: equals Plasma minus Plasma + BHT
# Method: In order to standardize the method to determine the lipophilic antioxidant capacity, butylated hydroxytoluene (BHT), a phenolic synthetic antioxidant, was chosen as an internal standard. Polyenes and certain foods were packaged with added BHT to protect against oxidation. Plasma was incubated with BODIPY 581/591 in the presence and absence of BHT (25 & 50 µM) at 37° C. for 30 min, and determined for oxidizability in the lipid compartment. There was no significant difference among incubation times of 30 min, 1 hr and 2 hr, on the incorporation of BHT in the lipid compartment of plasma (FIG. 14). […] The concentration of BHT may also be reduced to a level sufficient to produce a detectable signal.
# [3] = tested on: aqueous peroxyl radicals generated by AAPH in human plasma; assay: Consumption of endogenous plasma antioxidants induced by AAPH (HPLC); conditions: for percentage remaining / Residual Amount (%) / Residual Amount (%) of Cryptoxanthin / Residual Amount (%) of Lutein / Residual Amount (%) of Lycopene / Residual Amount (%) of Zeaxanthin / Residual Amount (%) of β-Carotene: AAPH 20 mM for 120 min; for percentage remaining / Residual Amount (%): no EGCG (control)
# Method: In a second similar experiment, other antioxidants were studied. […] Echinenone in ethanol was added as an internal standard.
# [4] = tested on: lipid peroxyl radicals generated by MeO-AMVN in human plasma; assay: Consumption of endogenous plasma antioxidants induced by MeO-AMVN (HPLC); conditions: for Residual Amount (%) of Cryptoxanthin / Residual Amount (%) of Lutein / Residual Amount (%) of Lycopene / Residual Amount (%) of Zeaxanthin / Residual Amount (%) of β-Carotene: MeO-AMVN 2 mM for 60 min
# Method: After an overnight fast (10-12 h), blood from two healthy donors was collected in ethylenediaminetetraacetic acid (EDTA)-containing tubes. In order to reduce the variability of different donors, blood samples from these two subjects were collected weekly for the duration of the experiment. Immediately after collection, the samples were placed on ice and protected from light. Plasma was obtained by centrifugation at 800 g for 20 min at 4° C. and immediately used for the in vitro studies.
# In the presence of 10-20 mM of AAPH, the flux of aqueous radicals calculated on the basis of the known rate of free radical generation from AAPH at 37° C.
# In order to obtain homogeneous incorporation, the lipid soluble initiators were added slowly to the samples with a micro-syringe (10 μl) with stirring. The samples were then vortexed for 10 sec and incubated at 37±1° C. under aerobic conditions.
# In a second similar experiment, other antioxidants were studied. […] A 100 μl aliquot of the reaction mixture was extracted for β-carotene and α-tocopherol analysis. Echinenone in ethanol was added as an internal standard. The mixture was extracted with CHCl3:CH3OH (2:1 v/v) containing 0.2% BHT and hexane containing 0.1% BHT, dried under nitrogen, redissolved in ethanol, and injected into an HPLC system with a C30 column (3 μm, 150×4.6 mm, YMC, Wilmington, N.C.).
# For water-soluble antioxidant measurement, the mixtures were immediately deproteinized with perchloric acid (250 mM).
# Results are expressed as percentages with respect to control samples prepared without the azo-compounds.
# [5] = tested on: aqueous plasma compartment oxidation; assay: Aqueous plasma compartment oxidation, DCFH to DCF fluorescence; parameters: species or system human; conditions: for protective effect on aqueous compartment oxidation: 180 min of incubation
# Method: The final plasma dilution was 1:5 (v/v).
# DCFH was prepared from DCFH-DA by basic hydrolysis. Briefly 500 μl of DCFH-DA stock solution (1 mM) was mixed with 2 ml of NaOH (0.01 N at 4° C.) for 20 minutes while protected from the light. The mixture was then neutralized with 2 ml of HCl (0.01 N), diluted with PBS to a final concentration of 10 μM and stored in ice for no longer than 8 hrs (working solution); an aliquot of 100 μl was added to 200 μl of plasma and then diluted to a final volume of 1 ml with PBS. […] The excitation wavelength (λex) was set at […] (slit 5 nm) and emission (λem) at 520 nm (slit 5 nm).
# Values are mean±SD of five independent experiments. […] Samples were incubated at 37° C. in the dark and at fixed times the DCF content measured by fluorescence (λex=502 nm, λem=520 nm).
# [6] = ESR quenching of α-tocopheroxyl radical generated from α-tocopherol and DPPH; format: biochemical
# Method: α-TOC+DPPH→α-TOC-O.+DPPHH [1]
# For sample preparation, α-tocopherol (900 μM) and DPPH (600 μM) in ethanol solution were mixed for 20 sec and 50 μl of the reaction mixture transferred into a capillary ESR tube. (−)-Epigallocatechin-(3)-gallate (EGCG) was added to the mixture immediately after DPPH decolorization (30 sec after DPPH addition).
# [7] = cited from earlier work
# [8] = Subject 1, 2 hr incubation w/1 mM MeO-AMVN
# [9] = Subject 1, 3 hr incubation w/1 mM MeO-AMVN
# [10] = Subject 2, 2 hr incubation w/1 mM MeO-AMVN
# [11] = Subject 2, 3 hr incubation w/1 mM MeO-AMVN
# [12] = Subject 3, 2 hr incubation w/1 mM MeO-AMVN
# [13] = Subject 3, 3 hr incubation w/1 mM MeO-AMVN
compound,measurement,setting,value
"CC(C)CC(C)(C#N)N=NC(C)(C#N)CC(C)C (stereo not shown) [AMVN, 2,2′-azobis(2,4-dimethylvaleronitrile)]",change in BODIPY fluorescence in plasma,"[1]; 2 mM initiator, 37° C",no observed changes; also recorded: No change
"Cc1cc(C(C)(C)C)c(O)c(C(C)(C)C)c1 [BHT, butylated hydroxytoluene]",protection of oxidation of lipid compartment,[2]; BHT added to plasma,78%
same,"Green Fluorescence, Plasma + BHT",[2]; [8],107 ± 1.4
same,"Green Fluorescence, 25 μM",[2]; [8],382
same,"Green Fluorescence, Plasma + BHT",[2]; [9],217 ± 4.0
same,"Green Fluorescence, 25 μM",[2]; [9],806
same,"Green Fluorescence, Plasma + BHT",[2]; [10],123 ± 7.3
same,"Green Fluorescence, 25 μM",[2]; [10],347
same,"Green Fluorescence, Plasma + BHT",[2]; [11],223 ± 8.9
same,"Green Fluorescence, 25 μM",[2]; [11],650
same,"Green Fluorescence, Plasma + BHT",[2]; [12],142 ± 8.0
same,"Green Fluorescence, 25 μM",[2]; [12],245
same,"Green Fluorescence, Plasma + BHT",[2]; [13],250 ± 13.3
same,"Green Fluorescence, 25 μM",[2]; [13],551
"CC1=C(/C=C/C(C)=C/C=C/C(C)=C/C=C/C=C(C)/C=C/C=C(C)/C=C/C2=C(C)CCCC2(C)C)C(C)(C)CCC1 [β-Carotene, β-carotene]",percentage remaining / Residual Amount (%),[3],28.89±6.17%
"CC1=C(/C=C/C(C)=C/C=C/C(C)=C/C=C/C=C(C)/C=C/C=C(C)/C=C/C2=C(C)C[C@@H](O)CC2(C)C)C(C)(C)CCC1 [Cryptoxanthin, cryptoxanthin]",percentage remaining / Residual Amount (%),[3],18.94 ± 3.86%
same,percentage remaining / Residual Amount (%),[3]; listed as cryptoxanthin,18.94±3.86%
"CC1=C(/C=C/C(C)=C/C=C/C(C)=C/C=C/C=C(C)/C=C/C=C(C)/C=C/C2=C(C)C[C@@H](O)CC2(C)C)C(C)(C)C[C@H](O)C1 [Zeaxanthin, zeaxanthin]",percentage remaining / Residual Amount (%),[3],17.50 ± 5.98%
same,percentage remaining / Residual Amount (%),[3]; listed as zeaxanthin,17.50±5.98%
"O=C(O[C@@H]1Cc2c(O)cc(O)cc2O[C@@H]1c1cc(O)c(O)c(O)c1)c1cc(O)c(O)c(O)c1 [EGCG, (−)-Epigallocatechin-(3)-gallate]",Residual Amount (%) of Cryptoxanthin,[4]; EGCG 0.5 μM,54.38 ± 2.74%
same,Residual Amount (%) of Lutein,[4]; EGCG 0.5 μM,32.57 ± 4.14%
same,Residual Amount (%) of Lycopene,[4]; EGCG 0.5 μM,20.15 ± 3.22%
same,Residual Amount (%) of Zeaxanthin,[4]; EGCG 0.5 μM,47.69 ± 5.85%
same,Residual Amount (%) of β-Carotene,[4]; EGCG 0.5 μM,51.95 ± 1.68%
same,Residual Amount (%) of Cryptoxanthin,[4]; EGCG 1 μM,52.36 ± 0.79%
same,Residual Amount (%) of Lutein,[4]; EGCG 1 μM,33.75 ± 3.94%
same,Residual Amount (%) of Lycopene,[4]; EGCG 1 μM,19.76 ± 2.62%
same,Residual Amount (%) of Zeaxanthin,[4]; EGCG 1 μM,49.64 ± 2.14%
same,Residual Amount (%) of β-Carotene,[4]; EGCG 1 μM,50.15 ± 3.35%
same,Residual Amount (%) of Cryptoxanthin,[4]; EGCG 5 μM,45.16 ± 3.09%
same,Residual Amount (%) of Lutein,[4]; EGCG 5 μM,44.64 ± 5.50%
same,Residual Amount (%) of Lycopene,[4]; EGCG 5 μM,23.56 ± 1.78%
same,Residual Amount (%) of Zeaxanthin,[4]; EGCG 5 μM,44.31 ± 0.94%
same,Residual Amount (%) of β-Carotene,[4]; EGCG 5 μM,57.73 ± 0.54%
same,% α-tocopherol remaining,"[4]; EGCG 10 μM, MeO-AMVN",96.71±1.46%
same,Residual Amount (%) of Cryptoxanthin,[4]; EGCG 10 μM,41.84 ± 1.60%
same,Residual Amount (%) of Lutein,[4]; EGCG 10 μM,40.36 ± 4.03%
same,Residual Amount (%) of Lycopene,[4]; EGCG 10 μM,26.72 ± 0.94%
same,Residual Amount (%) of Zeaxanthin,[4]; EGCG 10 μM,42.67 ± 2.04%
same,Residual Amount (%) of β-Carotene,[4]; EGCG 10 μM,59.13 ± 3.72%
same,sparing of carotenoids depletion,"[4]; EGCG 0.5-10 μM, MeO-AMVN",ineffective; also recorded: failed to prevent
same,Residual Amount (%) of Cryptoxanthin,[3]; EGCG 0.5 μM,28.46 ± 3.35%
same,Residual Amount (%) of Lutein,[3]; EGCG 0.5 μM,26.05 ± 4.26%
same,Residual Amount (%) of Lycopene,[3]; EGCG 0.5 μM,9.35 ± 5.18%
same,Residual Amount (%) of Zeaxanthin,[3]; EGCG 0.5 μM,25.61 ± 6.53%
same,Residual Amount (%) of β-Carotene,[3]; EGCG 0.5 μM,41.51 ± 6.64%
same,Residual Amount (%) of Cryptoxanthin,[3]; EGCG 1 μM,36.21 ± 1.71 %
same,Residual Amount (%) of Lutein,[3]; EGCG 1 μM,40.64 ± 5.30 %
same,Residual Amount (%) of Lycopene,[3]; EGCG 1 μM,18.06 ± 2.44%
same,Residual Amount (%) of Zeaxanthin,[3]; EGCG 1 μM,48.78 ± 4.81 %
same,Residual Amount (%) of β-Carotene,[3]; EGCG 1 μM,54.38 ± 4.86 %
same,Residual Amount (%) of Cryptoxanthin,[3]; EGCG 5 μM,48.88 ± 2.08 %
same,Residual Amount (%) of Lutein,[3]; EGCG 5 μM,56.05 ± 4.42 %
same,Residual Amount (%) of Lycopene,[3]; EGCG 5 μM,25.26 ± 1.02 %
same,Residual Amount (%) of Zeaxanthin,[3]; EGCG 5 μM,58.89 ± 5.10 %
same,Residual Amount (%) of β-Carotene,[3]; EGCG 5 μM,58.63 ± 3.30 %
same,Residual Amount (%) of Cryptoxanthin,[3]; EGCG 10 μM,56.45 ± 5.00 %
same,Residual Amount (%) of Lutein,[3]; EGCG 10 μM,63.13 ± 8.15 %
same,Residual Amount (%) of Lycopene,[3]; EGCG 10 μM,32.30 ± 4.24 %
same,Residual Amount (%) of Zeaxanthin,[3]; EGCG 10 μM,62.36 ± 11.92 %
same,Residual Amount (%) of β-Carotene,[3]; EGCG 10 μM,64.35 ± 6.37 %
same,effect on consumption of ascorbic acid and uric acid,"[3]; EGCG 0.5-10 μM, 20 mM AAPH",ineffective
same,protective effect on lipid compartment oxidation,"[1]; EGCG 0.5 μM, MeO-AMVN 2 mM, 180 min of incubation",13.01±0.56%
same,protection of lipid compartment oxidation,"[1]; EGCG 10 μM, MeO-AMVN 2 mM, 180 min of incubation",68±2.3%
same,"lowest / starting effective concentration, lipid compartment","[1]; MeO-AMVN 2 mM, 180 min",0.5 µM and 0.5 to 1 µM
same,IC50,"[1]; read-out: IC50 in lipid compartment, MeO-AMVN 2 mM, after 180 min of incubation",4.37 µM
same,"concentration at which activity starts, aqueous compartment","[5]; AAPH 20 mM, 180 min",0.25 µM
same,IC50,"[5]; AAPH 20 mM, after 180 min of incubation",0.72 µM
same,protective effect on aqueous compartment oxidation,"[5]; EGCG 10 μM, AAPH 20 mM",93.02±2.02%
same,protective effect on aqueous compartment oxidation,"[5]; EGCG 0.25 AM, AAPH 20 mM",20.25±0.34%
same,antioxidant efficiency in the aqueous in respect to the lipid domain,[5]; from IC50 after 180 min,six times greater
same,IC50,"[6]; 60 sec after the beginning of the reaction, read-out: IC50 quenching of α-TOC-O. ESR signal",12.1 µM
same,% inhibition of ESR signal,"[6]; EGCG 2 μM, 60 sec after the beginning of the reaction",8±1.3%
same,quenching effect on ESR signal,[6]; EGCG 25 μM,almost complete disappearance
same,redox potential E,"[7]; E(EGCG-O., H+/EGCG-OH), E(A−., H+/AH−)",0.48 V
same,ΔE to reduce tocopheroxyl radical,[7]; physiological pH,0.06 V
